In patent US11053175B2, “Thioether compounds as nitrification inhibitors” (BASF SE, priority 2015, dated 2021):

The molecules below were run on nitrification in soil (assay: Inhibition of nitrification in soil (48 well plate, ammonium sulfate, colour reaction read at 540 nm)). Settings: 72 h, dose of 10 ppm; soil, up to 72 hrs at room temperature; control DMSO only; best value obtained; read-out: IN (best inhibition value, inhibition of nitrification = 100 - % activity compared to control).
Assay type: cell-based
Procedure: The compounds of the invention have been tested as follows in terms of the inhibition of nitrification: Soil was sampled fresh from a field (e.g. Limburgerhof), dried and sieved through a 500 μm sieve. Approximately 200 mg of soil were placed into each well of a 48 well plate. Compounds, or DMSO alone, were added at a concentration of 10 ppm, dissolved in 1% DMSO. 6 μmol ammonium sulfate was added per well as well as 4.8 mg NaClO3.
Subsequently, the samples were incubated at room temperature for up to 72 hrs. After the incubation period 64 mg KCl were added and mixed. 25 μl of the supernatant were placed into a fresh plate and 260 μl of a color reaction solution (from Merck Nr 1.11799.0100) were added.
Measurements were taken with a Tecan plate Reader at 540 nm wavelength.
Inhibition is calculated as x=% activity compared to control, and converted to 100-x to give the value of inhibition, rather than activity.

SMILES | inhibition at 10 ppm
C#CCCS/C(C)=N\O [Compound 1-20] | 48%
C#CCSC1=NCCN1/N=C/c1ccc(C)cc1 [Compound 1-3] | 68%
C#CCSc1nnc(S)s1 [Compound 1-13] | 51%
C#CCS/C(N)=N\N=C\c1ccc(OC)cc1 [Compound 1-1] | 42%
C#CCSc1nc2c(cc1C#N)CCC2 [Compound 1-12] | 52%
C#CCSc1ncccn1 [Compound 1-6] | 59%
C#CCSc1nc2ccsc2c(=O)n1C [Compound 1-11] | 55%
C#CCS/C(N)=N\N=C\c1ccc(F)cc1 [Compound 1-10] | 59%
C#CCS/C(C)=N\O [Compound 1-9] | 67%
C#CCSc1sc2ccccc2[n+]1C [Compound 1-18] | 44%
C#CC[S+]([O-])CC#C [Compound 1-7] | 72%
C#CCSc1cnc2ccccc2n1 [Compound 1-23] | 33%
C#CCS(=O)(=O)CC#C [Compound 1-8] | 70%
C#CCSc1nccn1-c1ncc(C(F)(F)F)cc1Cl [Compound 1-19] | 42%
C#CCSC1=NNC(c2ccccn2)S1 (stereo not shown) [Compound 1-17] | 46%
C#CCSc1cnccn1 [Compound 1-21] | 69%

Same assay, conditions: dose of 10 ppm; soil, up to 72 hrs at room temperature; control DMSO only; best value obtained

SMILES | IN (best inhibition value, inhibition of nitrification = 100 - % activity compared to control)
C#CCSc1sc2ccccc2[n+]1C.[Br-] [Compound 1-22] | 42%

Same assay, conditions: reference compound, same conditions, dose of 10 ppm; read-out: IN (inhibition value, inhibition of nitrification)

SMILES | inhibition at 10 ppm
C#Cc1ccccc1 [Phenylacetylene, phenylacetylene, reference compound] | 7%

Each molecule was assayed on nitrification in soil in the same assay as above. Settings: dose of 3% a.i./NH, best value obtained, read-out: IN (best inhibition value, inhibition of nitrification = 100 - % activity compared to control).
Assay type: cell-based

SMILES | inhibition at 3 % strength
C#CC[S+]([O-])Cc1ccc(OC)cc1 (stereo not shown) [Compound 2-3] | 23%
C#CCSc1ccccc1 [Compound 2-9] | 48%
C#CCSc1sc2ccccc2[n+]1C [Compound 2-1] | 20%
C#CCSc1nnc(N)s1 [Compound 2-8] | 38%
C#CCSCC#C [Compound 2-10] | 97%
C#CCS(=O)(=O)Cc1ccccc1 [Compound 2-4] | 23%
C#CC[S+]([O-])Cc1ccc(Cl)cc1 (stereo not shown) [Compound 2-5] | 24%
C#CCSCc1ccc(Cl)cc1 [Compound 2-6] | 28%
C#CCSCc1ccccc1 [Compound 2-7] | 28%
C#CCS/C(N)=N\N=C\c1ccc(N(C)C)cc1 [Compound 2-2] | 20%
